Data as given in US20140329814A2, “Compositions for Treatment of Cystic Fibrosis and Other Chronic Diseases” (Vertex Pharmaceuticals Incorporated, priority 2010, published 2014).
Where a name gives a salt, the structure may show the parent alone.

Assays:
ΔF508-CFTR = target: T1, ΔF508-CFTR (Homo sapiens, UniProt P13569, DEL508-508); experiment: Membrane potential optical (FRET/VIPR) assay, identification of potentiator compounds, NIH3T3 cells expressing ΔF508-CFTR; type: cell-based; details: Table II.A-4; EC50 of certain embodiments
T1 construct: expressed in transfected cells
T1 sequence (P13569 with tags, fused parts or gaps DEL508-508): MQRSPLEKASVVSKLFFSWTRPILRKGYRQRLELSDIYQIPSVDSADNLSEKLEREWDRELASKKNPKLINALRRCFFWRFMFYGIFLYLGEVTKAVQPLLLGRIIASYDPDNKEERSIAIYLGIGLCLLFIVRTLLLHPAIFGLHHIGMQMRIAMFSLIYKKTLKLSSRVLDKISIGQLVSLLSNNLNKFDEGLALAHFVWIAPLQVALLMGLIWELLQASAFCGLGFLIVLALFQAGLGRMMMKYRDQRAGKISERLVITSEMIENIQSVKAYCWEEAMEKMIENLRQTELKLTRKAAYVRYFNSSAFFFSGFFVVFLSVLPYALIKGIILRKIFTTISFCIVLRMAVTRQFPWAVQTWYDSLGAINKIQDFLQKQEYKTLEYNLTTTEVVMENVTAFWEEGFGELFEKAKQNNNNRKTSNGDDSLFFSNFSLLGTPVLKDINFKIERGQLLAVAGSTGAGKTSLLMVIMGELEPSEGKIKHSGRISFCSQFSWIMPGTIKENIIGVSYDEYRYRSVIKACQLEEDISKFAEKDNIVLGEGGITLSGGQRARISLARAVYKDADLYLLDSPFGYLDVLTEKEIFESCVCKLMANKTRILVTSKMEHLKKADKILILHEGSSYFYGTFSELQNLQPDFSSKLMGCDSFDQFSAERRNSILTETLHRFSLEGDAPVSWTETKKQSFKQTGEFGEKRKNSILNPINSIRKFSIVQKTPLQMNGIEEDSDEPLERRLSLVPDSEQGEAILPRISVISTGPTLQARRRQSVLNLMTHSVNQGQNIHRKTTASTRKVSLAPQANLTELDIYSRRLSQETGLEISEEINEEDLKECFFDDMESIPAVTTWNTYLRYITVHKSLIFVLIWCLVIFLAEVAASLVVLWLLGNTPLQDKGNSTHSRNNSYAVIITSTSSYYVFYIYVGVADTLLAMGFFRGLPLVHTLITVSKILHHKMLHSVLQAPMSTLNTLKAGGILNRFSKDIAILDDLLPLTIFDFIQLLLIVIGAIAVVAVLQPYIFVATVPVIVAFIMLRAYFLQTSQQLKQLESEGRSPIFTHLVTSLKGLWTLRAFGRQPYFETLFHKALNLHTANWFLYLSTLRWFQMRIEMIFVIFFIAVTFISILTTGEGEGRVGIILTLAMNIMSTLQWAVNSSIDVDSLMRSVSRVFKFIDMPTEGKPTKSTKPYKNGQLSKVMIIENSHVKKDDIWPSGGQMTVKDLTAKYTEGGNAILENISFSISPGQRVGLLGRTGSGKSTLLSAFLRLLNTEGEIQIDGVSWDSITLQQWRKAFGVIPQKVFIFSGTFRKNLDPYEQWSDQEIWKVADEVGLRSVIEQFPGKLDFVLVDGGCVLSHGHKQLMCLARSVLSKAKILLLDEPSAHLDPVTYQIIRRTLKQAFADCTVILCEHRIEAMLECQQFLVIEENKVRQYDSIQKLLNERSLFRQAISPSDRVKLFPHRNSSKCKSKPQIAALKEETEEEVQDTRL
Source text: I) Membrane Potential Optical Methods for Assaying ΔF508-CFTR Modulation Properties of Compounds
The optical membrane potential assay utilized voltage-sensitive FRET sensors described by Gonzalez and Tsien (See, Gonzalez, J. E. and R. Y. Tsien (1995) “Voltage sensing by fluorescence resonance energy transfer in single cells” Biophys J 69(4): 1272-80, and Gonzalez, J. E. and R. Y. Tsien (1997) “Improved indicators of cell membrane potential that use fluorescence resonance energy transfer” Chem Biol 4(4): 269-77) in combination with instrumentation for measuring fluorescence changes such as the Voltage/Ion Probe Reader (VIPR) (See, Gonzalez, J. E., K. Oades, et al. (1999) “Cell-based assays and instrumentation for screening ion-channel targets” Drug Discov Today 4(9): 431-439).
These voltage sensitive assays are based on the change in fluorescence resonant energy transfer (FRET) between the membrane-soluble, voltage-sensitive dye, DiSBAC2(3), and a fluorescent phospholipid, CC2-DMPE, which is attached to the outer leaflet of the plasma membrane and acts as a FRET donor. Changes in membrane potential (Vm) cause the negatively charged DiSBAC2(3) to redistribute across the plasma membrane and the amount of energy transfer from CC2-DMPE changes accordingly. The changes in fluorescence emission were monitored using VIPR™ II, which is an integrated liquid handler and fluorescent detector designed to conduct cell-based screens in 96- or 384-well microtiter plates.
To identify potentiators of ΔF508-CFTR, a double-addition HTS assay format was developed. During the first addition, a Cl^−-free medium with or without test compound was added to each well. After 22 sec, a second addition of Cl^−-free medium containing 2-10 μM forskolin was added to activate ΔF508-CFTR. The extracellular Cl^− concentration following both additions was 28 mM, which promoted Cl^− efflux in response to ΔF508-CFTR activation and the resulting membrane depolarization was optically monitored using the FRET-based voltage-sensor dyes. Solutions
Bath Solution #1: (in mM) NaCl 160, KCl 4.5, CaCl2 2, MgCl2 1, HEPES 10, pH 7.4 with NaOH. Chloride-free bath solution: Chloride salts in Bath Solution #1 are substituted with gluconate salts. CC2-DMPE: Prepared as a 10 mM stock solution in DMSO and stored at −20° C. DiSBAC2(3): Prepared as a 10 mM stock in DMSO and stored at −20° C.
NIH3T3 mouse fibroblasts stably expressing ΔF508-CFTR are used for optical measurements of membrane potential. The cells are maintained at 37° C. in 5% CO2 and 90% humidity in Dulbecco's modified Eagle's medium supplemented with 2 mM glutamine, 10% fetal bovine serum, 1× NEAA, β-ME, 1× pen/strep, and 25 mM HEPES in 175 cm^2 culture flasks. […]

[1] = target: T2, epithelial sodium channel (ENaC) (Homo sapiens, UniProt P37088+P51168+P51170); experiment: Short circuit current (ISC) measurements in human bronchial epithelial cells, inhibition of amiloride-sensitive ISC; type: cell-based; details: inhibition of the amiloride-sensitive ISC, HBECs at air-liquid interface, compound added to apical chamber
T2 construct: host or cells: primary human bronchial epithelial cells (HBECs), air-liquid interface culture
T2 sequence (P37088 1-669): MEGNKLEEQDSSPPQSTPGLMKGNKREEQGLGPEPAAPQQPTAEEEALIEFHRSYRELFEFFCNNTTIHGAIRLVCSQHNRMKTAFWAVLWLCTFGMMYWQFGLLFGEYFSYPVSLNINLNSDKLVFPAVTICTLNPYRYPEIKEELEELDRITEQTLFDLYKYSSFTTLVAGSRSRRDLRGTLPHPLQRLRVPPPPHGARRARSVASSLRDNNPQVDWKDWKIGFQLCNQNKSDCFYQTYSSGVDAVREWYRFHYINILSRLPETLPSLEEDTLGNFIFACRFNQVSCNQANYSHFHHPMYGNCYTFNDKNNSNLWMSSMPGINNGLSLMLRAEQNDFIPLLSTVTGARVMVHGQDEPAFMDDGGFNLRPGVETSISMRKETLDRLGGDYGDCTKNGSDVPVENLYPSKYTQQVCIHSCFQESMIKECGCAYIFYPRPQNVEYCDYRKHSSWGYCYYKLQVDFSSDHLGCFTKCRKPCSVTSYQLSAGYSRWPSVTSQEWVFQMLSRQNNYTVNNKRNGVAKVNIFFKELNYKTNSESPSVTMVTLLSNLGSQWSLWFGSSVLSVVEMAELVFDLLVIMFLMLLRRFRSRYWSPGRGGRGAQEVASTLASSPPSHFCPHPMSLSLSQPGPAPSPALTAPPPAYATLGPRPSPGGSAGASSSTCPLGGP
T2 sequence (P51168 1-640): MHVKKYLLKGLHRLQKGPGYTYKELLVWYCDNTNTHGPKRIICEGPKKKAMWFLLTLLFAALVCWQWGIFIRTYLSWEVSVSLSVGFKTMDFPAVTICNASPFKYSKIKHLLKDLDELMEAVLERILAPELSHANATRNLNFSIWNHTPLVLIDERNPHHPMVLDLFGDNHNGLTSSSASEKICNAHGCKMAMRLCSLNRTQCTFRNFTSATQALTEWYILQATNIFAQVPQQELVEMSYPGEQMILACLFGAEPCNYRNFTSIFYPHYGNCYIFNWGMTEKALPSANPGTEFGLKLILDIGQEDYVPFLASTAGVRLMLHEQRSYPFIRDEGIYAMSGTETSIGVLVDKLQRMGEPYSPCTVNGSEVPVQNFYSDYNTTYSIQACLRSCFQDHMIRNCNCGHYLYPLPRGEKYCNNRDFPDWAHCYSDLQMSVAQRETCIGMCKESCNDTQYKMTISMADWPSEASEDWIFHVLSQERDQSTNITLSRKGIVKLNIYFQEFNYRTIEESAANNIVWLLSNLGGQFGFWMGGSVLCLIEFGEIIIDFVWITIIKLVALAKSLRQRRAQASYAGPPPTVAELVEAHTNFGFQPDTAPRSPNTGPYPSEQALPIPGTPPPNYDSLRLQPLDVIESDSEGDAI
T2 sequence (P51170 1-649): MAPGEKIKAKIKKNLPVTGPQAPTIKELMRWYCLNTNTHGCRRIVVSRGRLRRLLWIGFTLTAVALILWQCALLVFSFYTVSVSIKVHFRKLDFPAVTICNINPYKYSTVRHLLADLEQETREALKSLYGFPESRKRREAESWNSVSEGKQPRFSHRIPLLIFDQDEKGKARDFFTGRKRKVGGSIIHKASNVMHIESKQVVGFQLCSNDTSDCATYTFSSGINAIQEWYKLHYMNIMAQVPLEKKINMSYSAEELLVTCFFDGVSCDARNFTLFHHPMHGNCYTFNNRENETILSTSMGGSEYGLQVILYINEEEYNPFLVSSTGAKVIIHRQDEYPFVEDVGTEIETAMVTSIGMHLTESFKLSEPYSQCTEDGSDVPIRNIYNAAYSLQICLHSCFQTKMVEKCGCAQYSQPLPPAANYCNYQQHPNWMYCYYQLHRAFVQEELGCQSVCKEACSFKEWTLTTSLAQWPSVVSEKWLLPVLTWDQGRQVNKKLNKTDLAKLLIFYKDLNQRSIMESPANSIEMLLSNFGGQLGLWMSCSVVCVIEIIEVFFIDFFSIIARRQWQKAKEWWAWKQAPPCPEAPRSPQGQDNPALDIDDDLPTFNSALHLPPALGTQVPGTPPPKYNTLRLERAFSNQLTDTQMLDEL
Protocol: Compounds of Formula E and their pharmaceutically acceptable salts, hereinafter referred to alternatively as “illustrative ENaC inhibitors of the invention”, are useful as pharmaceuticals. In particular, the compounds have good ENaC blocker activity and may be tested in the following assays.
Human Bronchial Epithelial cells (HBECs) (Cambrex) were cultured under air-liquid interface conditions to provide a well differentiated mucociliary phenotype.
HBECs were cultured using a modification of the method described by Gray and colleagues (Gray et al., 1996). […]
Snapwell inserts were mounted in Vertical Diffusion Chambers (Costar) and were bathed with continuously gassed Ringer solution (5% CO2 in O2; pH 7.4) maintained at 37° C. containing (in mM): 120 NaCl, 25 NaHCO3, 3.3 KH2PO4, 0.8 K2HPO4, 1.2 CaCl2, 1.2 MgCl2, and 10 glucose. […] RT was measured by applying a 1- or 2-mV pulse at 30-s intervals and calculating RT by Ohm's law. Data were recorded using a PowerLab workstation (ADInstruments).
Test compounds were prepared as a 10 mM stock solution in DMSO (95%). […] At the completion of the concentration-response experiment, amiloride (10 μM) was added into the apical chamber to enable the total amiloride-sensitive current to be measured. […]
Results are expressed as the mean % inhibition of the amiloride-sensitive ISC. […]

| SMILES | EC50 (ΔF508-CFTR) | IC50 [1] |
| --- | --- | --- |
| O=C(Nc1ccccc1Oc1ccccc1)c1c[nH]c2ccccc2c1=O [compound 413, 4-oxo-N-(2-phenoxyphenyl)-1H-quinoline-3-carboxamide] | 10 to 25 µM |  |
| Cc1oc(-c2ccccc2)nc1COc1ccc(S(=O)(=O)N2CCC3(CC2)CN/C(=N\C(=O)c2nc(Cl)c(N)nc2N)N3)cc1 [Example 238, 3,5-Diamino-6-chloro-pyrazine-2-carboxylic acid [8-[4-(5-methyl-2-phenyl-oxazol-4-ylmethoxy)-benzenesulfonyl]-1,3,8-triaza-spiro[4.5]dec-(2E)-ylidene]-amide] |  | 0.0119 µM |
| Nc1cccc(NC(=O)c2c[nH]c3ccccc3c2=O)c1 [compound 431, N-(3-aminophenyl)-4-oxo-1H-quinoline-3-carboxamide] | < 10 µM |  |
| CC(C)(C)OC(=O)NCC(C)(C)c1ccc(NC(=O)c2c[nH]c3ccccc3c2=O)cc1 [compound 88, [2-methyl-2-[4-[(4-oxo-1H-quinolin-3-yl)carbonylamino]phenyl]-propyl]aminoformic acid tert-butyl ester] | < 10 µM |  |
| O=C(Nc1ccc(N2CCOCC2)cc1)c1c[nH]c2ccccc2c1=O [compound 457, N-(4-morpholinophenyl)-4-oxo-1H-quinoline-3-carboxamide] | < 10 µM |  |
| CCCC1N/C(=N/C(=O)c2nc(Cl)c(N)nc2N)NC1CCCc1ccc(OCC(O)CO)cc1 (stereo in doubt) [Example 29, (E)-3,5-diamino-6-chloro-N-(4-(3-(4-((S)-2,3-dihydroxypropoxy)phenyl)propyl)-5-propylimidazolidin-2-ylidene)pyrazine-2-carboxamide hydrochloride] |  | 0.005 µM |
